Reference: article PMC8838411, “Disrupting the MAD2L2-Rev1 Complex Enhances Cell Death upon DNA Damage” (Molecules, 2022)

Assays:
[1] = target: T1, GST-MAD2L2 (Homo sapiens, UniProt Q9UI95); test: field-effect biosensing (FEB, Agile R100), immobilised protein; format: binding; details: PBS; compound 1-50 μM; Hill fit or kon/koff; unreliable
T1 construct: GST fusion, expressed in E. coli BL21 Star, standard GST purification, amine-immobilised on graphene chip

[2] = target: T2, MAD2L2-Rev1 complex (myc-MAD2L2 and YFP-Rev1) (Homo sapiens, UniProt Q9UI95); test: co-immunoprecipitation (GFP-Trap), immunoblot; format: cell-based; details: HEK293 cells, 50 μM compound, 24 h
T2 construct: stoichiometry from the docking model; with DNA repair protein REV1

[3] = target: T1, GST-MAD2L2; test: field-effect biosensing (FEB, Agile R100), immobilised protein; format: binding; details: PBS; compound 1-50 μM; Hill fit or kon/koff

T1 sequence (Q9UI95 whole entry, the tested form may be a part): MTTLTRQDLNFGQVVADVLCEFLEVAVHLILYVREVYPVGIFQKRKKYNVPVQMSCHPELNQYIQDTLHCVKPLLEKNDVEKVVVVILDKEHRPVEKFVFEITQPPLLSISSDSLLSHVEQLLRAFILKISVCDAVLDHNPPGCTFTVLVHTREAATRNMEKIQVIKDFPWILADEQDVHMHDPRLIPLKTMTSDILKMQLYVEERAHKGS
T2 sequence (Q9UI95 whole entry): as the sequence (Q9UI95 whole entry, the tested form may be a part) above
T2 sequence (Q9UBZ9 whole entry partner): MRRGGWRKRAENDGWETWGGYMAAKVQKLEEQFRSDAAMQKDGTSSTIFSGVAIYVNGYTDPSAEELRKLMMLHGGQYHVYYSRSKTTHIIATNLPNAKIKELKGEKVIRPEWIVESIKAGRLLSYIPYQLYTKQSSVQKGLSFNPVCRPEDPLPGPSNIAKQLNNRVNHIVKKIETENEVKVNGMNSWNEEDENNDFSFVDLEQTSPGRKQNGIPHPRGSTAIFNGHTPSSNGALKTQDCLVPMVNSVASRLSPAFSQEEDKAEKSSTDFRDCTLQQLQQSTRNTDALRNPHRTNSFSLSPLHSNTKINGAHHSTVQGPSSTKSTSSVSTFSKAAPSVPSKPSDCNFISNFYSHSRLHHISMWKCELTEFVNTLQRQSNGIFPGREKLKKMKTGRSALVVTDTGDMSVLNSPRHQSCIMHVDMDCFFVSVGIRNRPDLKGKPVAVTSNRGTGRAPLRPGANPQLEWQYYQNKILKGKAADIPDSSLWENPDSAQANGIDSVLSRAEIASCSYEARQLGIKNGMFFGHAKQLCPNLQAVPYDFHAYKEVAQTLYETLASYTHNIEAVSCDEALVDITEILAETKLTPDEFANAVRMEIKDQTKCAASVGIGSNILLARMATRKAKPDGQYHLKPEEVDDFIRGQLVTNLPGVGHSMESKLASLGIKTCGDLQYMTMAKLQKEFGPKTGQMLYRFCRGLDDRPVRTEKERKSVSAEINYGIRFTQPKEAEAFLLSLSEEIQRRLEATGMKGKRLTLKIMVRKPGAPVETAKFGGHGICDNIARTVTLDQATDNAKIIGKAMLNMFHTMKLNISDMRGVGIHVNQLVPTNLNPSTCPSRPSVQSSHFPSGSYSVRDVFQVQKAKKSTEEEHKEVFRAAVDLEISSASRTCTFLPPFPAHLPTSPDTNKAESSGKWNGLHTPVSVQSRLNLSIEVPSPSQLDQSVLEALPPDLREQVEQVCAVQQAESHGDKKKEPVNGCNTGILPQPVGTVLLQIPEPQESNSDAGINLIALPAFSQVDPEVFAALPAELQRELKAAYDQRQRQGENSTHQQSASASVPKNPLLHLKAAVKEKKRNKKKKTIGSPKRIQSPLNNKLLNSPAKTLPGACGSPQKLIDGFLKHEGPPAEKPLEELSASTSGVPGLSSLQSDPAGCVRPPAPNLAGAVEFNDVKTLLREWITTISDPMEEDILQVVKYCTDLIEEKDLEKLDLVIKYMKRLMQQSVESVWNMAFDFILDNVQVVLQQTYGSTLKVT

Substance | kD [1] [µM] | % reduction of MAD2L2-Rev1 binding at 50 μM [2] | Kd [3] [µM]
ZINC97017995 [c#2] | 310.8 ± 32.96 | – | –
ZINC25496030 [c#3] | – | ~ 80% | 44.9 ± 2.06
